Assay results as given in ChEMBL document CHEMBL5257105, “Identification and structure-activity relationships for a series of N, N-disubstituted 2-aminobenzothiazoles as potent inhibitors of S. aureus” (Bioorg Med Chem Lett, 2023).
≈ marks a conversion by molar mass, not a printed value. Calls of active or inactive are those of the source. The calls are words filed in the database; no cut-off is given here.

What was measured:
Pseudomonas aeruginosa [1] = experiment: Antibacterial activity against Pseudomonas aeruginosa PAO1; type: functional
Escherichia coli [2] = experiment: Antibacterial activity against Escherichia coli; type: functional
Escherichia coli [3] = experiment: Antibacterial activity against wild type Escherichia coli harbouring pore; type: functional
Escherichia coli [4] = experiment: Antibacterial activity against […] Escherichia coli harbouring TolC-deficient mutant; type: functional
Pseudomonas aeruginosa [5] = experiment: Antibacterial activity against Pseudomonas aeruginosa PAO1 harbouring delta6 mutant; type: functional
Pseudomonas aeruginosa [6] = experiment: Antibacterial activity against Pseudomonas aeruginosa PAO1 harbouring delta6 mutant with pore; type: functional
Staphylococcus aureus [7] = experiment: Antibacterial activity against Staphylococcus aureus; type: functional
A549 = experiment: (§1) Cytotoxicity against human A549 cells; type: toxicity, cell-based; details: a549
[8] = as §1; type: toxicity, cell-based; details: A549 cells
Escherichia coli [9] = experiment: Antibacterial activity against Escherichia coli BW25113; type: functional
Acinetobacter baumannii = experiment: Antibacterial activity against Acinetobacter baumannii ATCC 17978; type: functional
Staphylococcus aureus [10] = experiment: Antibacterial activity against Staphylococcus aureus ATCC 215; type: functional
Staphylococcus aureus [11] = experiment: Antibacterial activity against Staphylococcus aureus ATCC 216; type: functional
Staphylococcus aureus [12] = experiment: Antibacterial activity against Staphylococcus aureus ATCC 217; type: functional
Staphylococcus aureus [13] = experiment: Antibacterial activity against Staphylococcus aureus ATCC 219; type: functional
Staphylococcus aureus [14] = experiment: Antibacterial activity against Staphylococcus aureus ATCC 223; type: functional
Staphylococcus aureus [15] = experiment: Antibacterial activity against Staphylococcus aureus ATCC 701; type: functional
Staphylococcus aureus [16] = experiment: Antibacterial activity against Staphylococcus aureus ATCC 711; type: functional
Staphylococcus aureus [17] = experiment: Antibacterial activity against Staphylococcus aureus ATCC 716; type: functional
Staphylococcus aureus [18] = experiment: Bacteriostatic activity against Staphylococcus aureus ATCC 25923 at MIC measured after 5 to 40 hrs by time kill assay; type: functional, organism-based; details: time 5-40 hrs
Staphylococcus aureus [19] = experiment: Bacteriostatic activity against Staphylococcus aureus ATCC 25923 at 4 times MIC measured after 5 to 40 hrs by time kill assay; type: functional, organism-based; details: time 5-40 hrs
Staphylococcus aureus [20] = experiment: Bactericidal activity against Staphylococcus aureus ATCC 25923 at 16 times MIC measured after 9.5 to 40 hrs by time kill assay; type: functional, organism-based; details: time 9.5-40 hrs
Staphylococcus aureus [21] = experiment: Antibacterial activity against Staphylococcus aureus ATCC 25923; type: functional
Escherichia coli [22] = experiment: Antibacterial activity against […] Escherichia coli harbouring TolC-deficient mutant with pore; type: functional
Pseudomonas aeruginosa [23] = experiment: Antibacterial activity against Pseudomonas aeruginosa PAO1 harbouring pore; type: functional
[24] = Selectivity ratio of CC50 for human A549 cells to MIC for Staphylococcus aureus; type: toxicity
[25] = Staphylococcus aureus, read-out: MIC
[26] = Staphylococcus aureus, read-out: MIC80

CC[C@H]1OC(=O)[C@H](C)[C@@H](O[C@H]2C[C@@](C)(OC)[C@@H](O)[C@H](C)O2)[C@H](C)[C@@H](O[C@@H]2O[C@H](C)C[C@H](N(C)C)[C@H]2O)[C@](C)(O)C[C@@H](C)C(=O)[C@H](C)[C@@H](O)[C@]1(C)O [ERYTHROMYCIN]
MIC (Pseudomonas aeruginosa [1]): 128 µM (≈ 93.9 µg/mL) | MIC (Escherichia coli [2]): 64 µM (≈ 47 µg/mL) | MIC (Escherichia coli [3]): 4 µM (≈ 2.94 µg/mL) | MIC (Escherichia coli [4]): 2 µM (≈ 1.47 µg/mL) | MIC (Pseudomonas aeruginosa [5]): 8 µM (≈ 5.87 µg/mL) | MIC (Pseudomonas aeruginosa [6]): 0.063 µM (≈ 0.0462 µg/mL)

Cc1cc(Cl)cc2sc(N(CCCn3ccnc3)C(=O)c3ccoc3)nc12
MIC (Staphylococcus aureus [7]; [25]): 2.6 µM (≈ 1.04 µg/mL) | CC50 (A549): 53.4 µM

Cc1cc(Cl)cc2sc(N(CCCn3ccnc3)C(=O)c3ccccn3)nc12
MIC (Staphylococcus aureus [7]; [25]): 7.4 µM (≈ 3.05 µg/mL) | CC50 (A549): 44.5 µM

Cc1cc(Cl)cc2sc(N(CCCn3ccnc3)C(=O)C3(C)CC3)nc12
MIC (Staphylococcus aureus [7]; [25]): 3.3 µM (≈ 1.28 µg/mL) | CC50 (A549): 54.6 µM

Cc1cc(Cl)cc2sc(N(CCCn3ccnc3)C(=O)c3ccco3)nc12
CC50 [8]: 34.1 µM | CC50 (A549): 12 µM | MIC (Escherichia coli [9]): > 100 µM | MIC (Acinetobacter baumannii): > 100 µM | MIC (Pseudomonas aeruginosa [1]): > 100 µM | MIC (Staphylococcus aureus [10]): 14.8 µM (≈ 5.93 µg/mL) | MIC (Staphylococcus aureus [11]): 4.4 µM (≈ 1.76 µg/mL) | MIC (Staphylococcus aureus [12]): 6.6 µM (≈ 2.65 µg/mL) | MIC (Staphylococcus aureus [13]): 2.9 µM (≈ 1.16 µg/mL) | MIC (Staphylococcus aureus [14]): 6.6 µM (≈ 2.65 µg/mL) | MIC (Staphylococcus aureus [15]): 4.4 µM (≈ 1.76 µg/mL) | MIC (Staphylococcus aureus [16]): 6.6 µM (≈ 2.65 µg/mL) | MIC (Staphylococcus aureus [17]): 4.4 µM (≈ 1.76 µg/mL) | Activity (Staphylococcus aureus [18]): Active | Activity (Staphylococcus aureus [19]): Active | Activity (Staphylococcus aureus [20]): Active | MIC (Pseudomonas aeruginosa [5]): > 200 µM | MIC (Pseudomonas aeruginosa [6]): 6.25 µM (≈ 2.51 µg/mL)

Cc1ccc(C(=O)N(CCCn2ccnc2)c2nc3c(C)cc(Cl)cc3s2)s1
MIC (Staphylococcus aureus [7]; [25]): 16.5 µM (≈ 7.11 µg/mL) | CC50 (A549): 34.1 µM

O=C(O)c1cn(C2CC2)c2cc(N3CCNCC3)c(F)cc2c1=O [CIPROFLOXACIN]
MIC (Staphylococcus aureus [21]): < 0.9 µM

Cc1cc(Cl)cc2sc(N(CCCn3ccnc3)C(=O)c3ccc[nH]3)nc12
MIC (Staphylococcus aureus [7]; [25]): 1.7 µM (≈ 0.68 µg/mL) | CC50 (A549): > 100 µM | MIC (Pseudomonas aeruginosa [1]): > 100 µM | MIC (Escherichia coli [2]): > 200 µM | MIC (Escherichia coli [3]): > 200 µM | MIC (Escherichia coli [4]): 1.56 µM (≈ 0.624 µg/mL) | MIC (Escherichia coli [22]): 0.78 µM (≈ 0.312 µg/mL) | MIC (Pseudomonas aeruginosa [23]): > 100 µM | MIC (Pseudomonas aeruginosa [5]): > 100 µM

Cc1cc(Cl)cc2sc(N(CCCn3ccnc3)C(=O)CN)nc12
MIC (Staphylococcus aureus [7]; [25]): 100 µM (≈ 36.4 µg/mL)

CO[C@@H]1[C@@H](OC(N)=O)[C@@H](O)[C@H](Oc2ccc3c(O)c(NC(=O)c4ccc(O)c(CC=C(C)C)c4)c(=O)oc3c2C)OC1(C)C [NOVOBIOCIN]
MIC (Pseudomonas aeruginosa [1]): > 512 µM | MIC (Escherichia coli [3]): 64 µM (≈ 39.2 µg/mL) | MIC (Escherichia coli [4]): 1 µM (≈ 0.613 µg/mL) | MIC (Escherichia coli [22]): 0.125 µM (≈ 0.0766 µg/mL) | MIC (Pseudomonas aeruginosa [5]): 256 µM (≈ 157 µg/mL) | MIC (Pseudomonas aeruginosa [6]): 4 µM (≈ 2.45 µg/mL)

O=C(c1ccco1)N(CCCn1ccnc1)c1nc2ccc(Cl)nc2s1
MIC (Staphylococcus aureus [7]; [25]): > 100 µM

O=C(c1ccco1)N(CCCn1ccnc1)c1nc2ccccc2s1
MIC (Staphylococcus aureus [7]; [25]): 44.4 µM (≈ 15.6 µg/mL) | CC50 [8]: 142 µM

Cc1cc(Cl)cc2sc(N(CCCn3ccnc3)C(=O)C(C)C)nc12
MIC (Staphylococcus aureus [7]): 2.6 µM (≈ 0.98 µg/mL) | MIC (Staphylococcus aureus [7]; [25]): 3.9 µM (≈ 1.47 µg/mL) | CC50 [8]: 46.4 µM | MIC (Pseudomonas aeruginosa [1]): > 200 µM | MIC (Escherichia coli [2]): > 100 µM | MIC (Escherichia coli [3]): > 100 µM | MIC (Escherichia coli [4]): 3.2 µM (≈ 1.21 µg/mL) | MIC (Escherichia coli [22]): 3.2 µM (≈ 1.21 µg/mL) | MIC (Pseudomonas aeruginosa [23]): > 200 µM | MIC (Pseudomonas aeruginosa [5]): 50 µM (≈ 18.8 µg/mL) | MIC (Pseudomonas aeruginosa [6]): 0.78 µM (≈ 0.294 µg/mL)

NCc1ccc2nc(N(CCCn3ccnc3)C(=O)c3ccco3)sc2c1
MIC (Staphylococcus aureus [7]; [25]): > 100 µM

Cc1c(Cl)ccc2sc(N(CCCn3ccnc3)C(=O)c3ccco3)nc12
MIC (Staphylococcus aureus [7]; [25]): 2.6 µM (≈ 1.04 µg/mL) | CC50 [8]: 27.4 µM

Cc1cc(Cl)cc2sc(N(CCCn3ccnc3)CS(=O)(=O)c3ccccc3)nc12
MIC80 (Staphylococcus aureus [7]; [26]): 2.6 µM (≈ 1.2 µg/mL) | CC50 [8]: 23.3 µM

Cc1ccc(C(=O)N(CCCn2ccnc2)c2nc3c(C)cc(Cl)cc3s2)o1
MIC (Staphylococcus aureus [7]; [25]): 2.6 µM (≈ 1.08 µg/mL) | CC50 (A549): 35.2 µM

Cc1cc(Cl)cc2sc(N(CC3CCC(N)CC3)C(=O)c3ccco3)nc12 (configuration not stated)
MIC80 (Staphylococcus aureus [7]): 29.6 µM (≈ 12 µg/mL) | MIC80 (Staphylococcus aureus [7]; [26]): 19.8 µM (≈ 8 µg/mL) | MIC (Pseudomonas aeruginosa [1]): > 200 µM | MIC (Escherichia coli [2]): > 200 µM | MIC (Escherichia coli [3]): 100 µM (≈ 40.4 µg/mL) | MIC (Escherichia coli [4]): 50 µM (≈ 20.2 µg/mL) | MIC (Escherichia coli [22]): 25 µM (≈ 10.1 µg/mL) | MIC (Pseudomonas aeruginosa [23]): > 200 µM | MIC (Pseudomonas aeruginosa [6]): 12.5 µM (≈ 5.05 µg/mL)

Cc1cc(Cl)cc2sc(N(CCCn3ccnc3)C(=O)C3CCCC3)nc12
MIC (Staphylococcus aureus [7]; [25]): 1.7 µM (≈ 0.685 µg/mL) | CC50 (A549): 59.7 µM | selectivity ratio [24]: 34
